PMC2099433, “The binding site for neohesperidin dihydrochalcone at the human sweet taste receptor” (BMC Structural Biology, 2007)
Numbering of substitutions follows the chain as printed. Where a SMILES comes first, the peptide text is derived from it.

Columns and labels:
[1] = biological target: T1, hTAS1R2 + hTAS1R3 S640A^3.32 (Homo sapiens, UniProt Q7RTX0+Q8TE23, S640A); assay: Calcium response (FLIPR), hTAS1R3 mutant coexpressed with hTAS1R2; format: cell-based; conditions: variant S640A^3.32; for Emax: read-out: maximal signal (% of wt)
T1 construct: expressed in transfected cells; host or cells: HEK293T cells stably expressing G16Gust44
T1 sequence (Q8TE23 20-839): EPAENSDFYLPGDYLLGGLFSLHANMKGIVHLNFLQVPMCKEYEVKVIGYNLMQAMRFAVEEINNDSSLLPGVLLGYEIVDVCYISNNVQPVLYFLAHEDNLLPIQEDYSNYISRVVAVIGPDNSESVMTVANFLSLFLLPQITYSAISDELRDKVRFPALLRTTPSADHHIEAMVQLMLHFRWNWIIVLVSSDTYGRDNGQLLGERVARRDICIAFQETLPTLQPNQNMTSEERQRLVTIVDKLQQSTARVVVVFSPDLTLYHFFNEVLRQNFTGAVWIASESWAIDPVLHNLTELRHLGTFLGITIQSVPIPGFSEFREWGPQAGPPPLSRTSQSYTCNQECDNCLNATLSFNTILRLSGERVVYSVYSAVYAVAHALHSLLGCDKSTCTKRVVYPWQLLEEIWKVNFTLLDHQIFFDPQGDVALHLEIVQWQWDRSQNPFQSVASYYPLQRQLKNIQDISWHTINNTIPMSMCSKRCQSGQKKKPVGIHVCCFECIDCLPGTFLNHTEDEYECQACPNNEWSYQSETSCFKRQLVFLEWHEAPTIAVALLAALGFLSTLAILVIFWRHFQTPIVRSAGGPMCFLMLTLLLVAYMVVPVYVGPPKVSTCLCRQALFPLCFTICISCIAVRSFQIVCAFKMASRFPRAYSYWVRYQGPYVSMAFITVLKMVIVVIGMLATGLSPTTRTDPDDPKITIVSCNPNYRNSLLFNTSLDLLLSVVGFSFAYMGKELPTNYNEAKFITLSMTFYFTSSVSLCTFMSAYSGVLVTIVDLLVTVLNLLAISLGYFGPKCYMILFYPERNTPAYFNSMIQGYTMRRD
T1 sequence (Q7RTX0 21-852 S640A): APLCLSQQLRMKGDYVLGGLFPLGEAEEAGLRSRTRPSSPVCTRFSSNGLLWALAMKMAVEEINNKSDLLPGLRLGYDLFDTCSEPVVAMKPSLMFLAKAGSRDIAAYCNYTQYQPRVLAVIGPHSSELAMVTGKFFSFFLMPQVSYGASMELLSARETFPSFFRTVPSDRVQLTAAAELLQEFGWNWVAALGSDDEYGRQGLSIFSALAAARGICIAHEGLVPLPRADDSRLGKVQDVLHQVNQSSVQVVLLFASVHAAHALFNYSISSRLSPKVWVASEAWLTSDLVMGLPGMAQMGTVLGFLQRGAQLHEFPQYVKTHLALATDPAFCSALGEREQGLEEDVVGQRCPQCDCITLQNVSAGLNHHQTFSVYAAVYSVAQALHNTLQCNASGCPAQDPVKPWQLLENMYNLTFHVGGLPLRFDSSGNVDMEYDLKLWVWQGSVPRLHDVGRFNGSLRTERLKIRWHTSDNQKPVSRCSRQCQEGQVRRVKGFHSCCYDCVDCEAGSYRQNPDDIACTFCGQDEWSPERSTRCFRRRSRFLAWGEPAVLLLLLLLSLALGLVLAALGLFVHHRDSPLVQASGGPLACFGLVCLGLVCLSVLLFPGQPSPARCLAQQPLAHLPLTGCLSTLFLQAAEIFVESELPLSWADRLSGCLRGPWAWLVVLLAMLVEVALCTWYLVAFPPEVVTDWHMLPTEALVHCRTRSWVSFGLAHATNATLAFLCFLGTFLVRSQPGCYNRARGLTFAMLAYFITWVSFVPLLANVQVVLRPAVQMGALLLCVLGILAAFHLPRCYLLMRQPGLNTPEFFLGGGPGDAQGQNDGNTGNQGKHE
Method in brief: (§1)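 HEK293T cells stably expressing chimeric G16Gust44 were transiently transfected with C-terminally HSV-tagged hTAS1R2 and mutant hTAS1R3, then loaded 24 h later with Fluo4-AM for 1 h. Calcium mobilization after sweet-tastant application was read by FLIPR, mock-corrected and expressed as ΔF/F.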

[2] = biological target: T2, hTAS1R2 + hTAS1R3 L798I^7.36 (Homo sapiens, UniProt Q7RTX0+Q8TE23, L798I); assay: as above; format: cell-based; conditions: variant L798I^7.36; for Emax: read-out: maximal signal (% of wt)
T2 construct: expressed in transfected cells; host or cells: HEK293T cells stably expressing G16Gust44
T2 sequence (Q8TE23 20-839): T1 sequence (Q8TE23 20-839)
T2 sequence (Q7RTX0 21-852 L798I): T1 sequence (Q7RTX0 21-852 S640A) with A620S, L778I
Method in brief: as §1

SMILES | EC50 [1] [µM] | Emax [1] [%] | EC50 [2] [µM] | Emax [2] [%]
COc1ccc(CCC(=O)c2c(O)cc(O[C@@H]3O[C@H](CO)[C@@H](O)[C@H](O)[C@H]3O[C@@H]3O[C@@H](C)[C@H](O)[C@@H](O)[C@H]3O)cc2O)cc1O [NHDC, neohesperidin dihydrochalcone] | 800 ± 200 | 63 ± 18 | 200 ± 200 | 66 ± 26
COC(=O)[C@H](Cc1ccccc1)NC(=O)[C@@H](N)CC(=O)O [aspartame] (HELM PEPTIDE1{D.F.[CO[*:1]]}$$$$V2.0) | 1400 ± 500 | 61 ± 40 | 900 ± 400 | 81 ± 5
